# What was measured:
# [1] = system: L1210 murine leukemia cell line; test: Cell cultures and drug sensitivity assay (inhibition of cell growth, cell counting); format: cell-based; settings: Mus musculus; L1210 cells, 48 h treatment; read-out: ID50 (nM) L1210
# Protocol: (§1) (b) Cell Cultures and Drug Sensitivity Assay
# (§2) L1210 and L1210/DX (Doxorubicin resistant) murine leukemia cell lines were grown in vitro as a stationary suspension culture in RPMI 1640 medium (GIBCO, Grand island, N.Y.) supplemented with 10% fetal calf serum (Flow, Irwine, UK), 2 mM L-glutamine (Gibco Europe, Glasgow, UK), 10 μM β-mercaptoethanol, 100 Units/ml penicillin and 100 μg/ml streptomycin.
# (§3) Exponentially growing cells were seeded (1×10^5 cell/ml) in 12-well/plates (Costar, Cambridge, Mass.) and various concentrations of tested compounds were added immediately after seeding.
# (§4) The plates were incubated at 37° C. in a humidified, 5% CO2 atmosphere for 48 hr.
# (§5) Inhibition of cell growth was evaluated by counting surviving cells in a ZBI Coulter Counter (Hialeah, Fla.). The 50% inhibitory concentration (IC50) was calculated on the derived concentration-response curve. For each tested compound concentration, duplicate cultures were used.
# [2] = system: Calf brain tubulin; test: Tubulin assembly test (repolymerization in presence of CaCl2, turbidity at 340 nm); format: biochemical; settings: tubulin 1 mg/ml, 1 mM GTP, after 4 mM CaCl2
# Protocol: (a) Tubulin Assembly Test
# Calf brain tubulin was prepared by two cycles of assembly-disassembly (Shelanski M. L., Gaskin F. and Cantor C. R., Proc. Natl.Acad.Sci. U.S.A. 70, 765-768, 1973; and stored in liquid nitrogen in MAB (0.1M MES, 2.5 mM EGTA, 0.5 mM MgSO4, 0.1 mM EDTA, 0.1 mM DTT, pH 6.4).
# All the experiments were carried out on protein stored for less than 4 weeks.
# Before each experiment, tubulin was kept 30 min at 4° C. Assembly was monitored by the method of Gaskin et al. (Gaskin F., Cantor C. R. and Shelanski M. L., J.Molec.Biol. 89, 737-758, 1974).
# The cuvette (1 cm path) containing tubulin (1 mg/ml) and 1 mM GTP was shifted to 37° C. and continuous turbidity measurements were made at 340 nm on a Perkin-Elmer 557 double wavelength, double beam spectrophotometer equipped with an automatic recorder and a thermostatically regulated sample chamber.
# After 30 minutes, 4 mM CaCl2 was added and depolymerisation was measured for 10 minutes as decreased turbidity.
# At regular intervals of 15 minutes scaled doses of the tested compounds were added and variations in the turbidity were monitored.
# Data are expressed as percentage of repolymerization induced by the tested compounds.
# [3] = system: L1210/DX (Doxorubicin resistant) murine leukemia cell line; test: Cell cultures and drug sensitivity assay (inhibition of cell growth, cell counting), Doxorubicin resistant cells; format: cell-based; settings: for R.I: L1210/DX versus L1210, 48 h treatment; for IC50: Mus musculus, L1210/DX cells (Doxorubicin resistant), 48 h treatment, read-out: ID50 (nM) L1210/DX
# Protocol: as §1, §2, §3, §4, §5
Structure (SMILES),IC50 [1] [nM],tubulin assembly (%) (percentage of repolymerization induced by the tested compound) ([2]; dosage 4 μM),tubulin assembly (%) (percentage of repolymerization induced by the tested compound) ([2]; dosage 40 μM),R.I [3],IC50 [3] [nM],tubulin assembly (%) (percentage of repolymerization induced by the tested compound) ([2]; dosage 3.9 μM),tubulin assembly (%) (percentage of repolymerization induced by the tested compound) ([2]; dosage 39 μM)
"COC(=O)C1=CC2C(CC(OC(=O)C=Cc3cn(C)cn3)C3(C)C=CC1(O)O3)C(C)=CCC2C(C)C (single isomer, unassigned; (-)) [Sarcodictyin A]",539 ± 97.7,70,162,1.4,754 ± 80.3,–,–
"COC(=O)C1=CC2C(CC(OC(=O)C=Cc3cn(C)cn3)C3(C)C=CC1(O)O3)C(C)=CC(O)C2C(C)C (single isomer, unassigned; (-)) [Sarcodictyin C]",408 ± 21.3,–,–,14.2,5790 ± 183,112,173

# — patent publication US5869514A, “Terpenoidic derivatives useful as antitumor agents” (Pharmacia & Upjohn S.p.A., priority 1995, dated 1999)
